In PMC3961306, “Comparison of the Cancer Gene Targeting and Biochemical Selectivities of All Targeted Kinase Inhibitors Approved for Clinical Use” (PLoS ONE, 2014):
Like-named read-outs stand apart in the source and are kept apart here.

Assays:
[1] = test system: forty-four human cancer cell lines; experiment: Cell proliferation assay (ATPlite, 72 hours) in the 44 cell line Oncolines panel; type: cell-based; details: for IC50: Homo sapiens
[2] = biological target: panel of more than 300 wild-type and mutant kinases (313 kinase panel) (Homo sapiens, UniProt O95819); experiment: Kinase profiling in a biochemical assay panel (mobility shift assays and ELISA), %-inhibition at 1 μM; selectivity entropy
[3] = biological target: panel of more than 300 wild-type and mutant kinases (313 kinase panel) (Homo sapiens, UniProt P19525); experiment: as above
[4] = biological target: panel of more than 300 wild-type and mutant kinases (313 kinase panel) (Homo sapiens, UniProt Q00535); experiment: as above
[5] = biological target: T1, panel of more than 300 wild-type and mutant kinases (313 kinase panel) (Homo sapiens, UniProt Q16832); experiment: as above; details: 1 µM
T1 sequence (Q16832 22-855): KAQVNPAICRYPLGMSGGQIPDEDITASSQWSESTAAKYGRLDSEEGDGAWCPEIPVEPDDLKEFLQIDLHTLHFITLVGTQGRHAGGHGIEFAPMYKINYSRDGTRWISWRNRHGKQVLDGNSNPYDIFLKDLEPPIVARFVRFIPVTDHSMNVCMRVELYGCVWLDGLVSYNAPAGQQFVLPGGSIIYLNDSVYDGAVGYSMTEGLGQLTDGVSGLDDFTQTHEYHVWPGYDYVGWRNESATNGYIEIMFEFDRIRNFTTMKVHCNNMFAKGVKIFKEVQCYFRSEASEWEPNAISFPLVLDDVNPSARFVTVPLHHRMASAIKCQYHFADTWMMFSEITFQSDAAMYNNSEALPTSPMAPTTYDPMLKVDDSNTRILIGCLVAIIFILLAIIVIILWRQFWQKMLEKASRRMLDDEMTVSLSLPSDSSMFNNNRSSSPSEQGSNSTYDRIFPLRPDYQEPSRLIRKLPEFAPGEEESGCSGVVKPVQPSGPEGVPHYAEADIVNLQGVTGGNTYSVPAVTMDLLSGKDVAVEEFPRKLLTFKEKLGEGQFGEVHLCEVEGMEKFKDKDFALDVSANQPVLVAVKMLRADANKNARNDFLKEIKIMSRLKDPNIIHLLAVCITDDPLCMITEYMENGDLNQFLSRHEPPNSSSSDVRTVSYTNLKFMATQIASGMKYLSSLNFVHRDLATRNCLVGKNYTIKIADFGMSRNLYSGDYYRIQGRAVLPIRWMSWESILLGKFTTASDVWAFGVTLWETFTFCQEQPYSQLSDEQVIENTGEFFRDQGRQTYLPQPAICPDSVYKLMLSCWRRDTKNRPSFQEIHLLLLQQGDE

[6] = 4-4 cell, read-out: cell panel IC50, J82
[7] = 4-4 cell, read-out: cell panel IC50, PA-1
[8] = 4-4 cell, read-out: cell panel IC50, SJCRH30
[9] = 4-4 cell, read-out: cell panel IC50, SR
[10] = 769-P, read-out: cell panel IC50, 769-P
[11] = 786-0, read-out: cell panel IC50, 786-0
[12] = A 172, read-out: cell panel IC50, A-172
[13] = A204, read-out: cell panel IC50, A-204
[14] = A498, read-out: cell panel IC50, A-498
[15] = A-375, read-out: cell panel IC50, A375
[16] = ACHN, read-out: cell panel IC50, ACHN
[17] = AN3-CA, read-out: cell panel IC50, AN3 CA
[18] = AU565, read-out: cell panel IC50, AU-565
[19] = BT-20, read-out: cell panel IC50, BT-20
[20] = BXPC-3, read-out: cell panel IC50, BxPC-3
[21] = C-33-A, read-out: cell panel IC50, C-33 A
[22] = CAL-27, read-out: cell panel IC50, CAL 27
[23] = CCRF-CEM, read-out: cell panel IC50, CCRF-CEM
[24] = DLD-1, read-out: cell panel IC50, DLD-1
[25] = FaDu, read-out: cell panel IC50, FaDu
[26] = HCT-15, read-out: cell panel IC50, HCT-15
[27] = HCT-116, read-out: cell panel IC50, HCT-116
[28] = Hs-578T, read-out: cell panel IC50, Hs 578T
[29] = Jurkat E6.1, read-out: cell panel IC50, Jurkat E6.1
[30] = K562, read-out: cell panel IC50, K-562
[31] = LS174T, read-out: cell panel IC50, LS 174T
[32] = LoVo, read-out: cell panel IC50, LoVo
[33] = MG-63, read-out: cell panel IC50, MG-63
[34] = MOLT-4, read-out: cell panel IC50, MOLT-4
[35] = MeWo, read-out: cell panel IC50, MeWo
[36] = NCI-H82, read-out: cell panel IC50, NCI-H82
[37] = NCI-H460, read-out: cell panel IC50, NCI-H460
[38] = OVCAR-3, read-out: cell panel IC50, OVCAR-3
[39] = RPMI-7951, read-out: cell panel IC50, RPMI-7951
[40] = SHP77, read-out: cell panel IC50, SHP-77
[41] = SK-N-AS, read-out: cell panel IC50, SK-N-AS
[42] = SW48, read-out: cell panel IC50, SW48
[43] = SW480, read-out: cell panel IC50, SW480
[44] = SW-620, read-out: cell panel IC50, SW620
[45] = U2OS, read-out: cell panel IC50, U-2 OS
[46] = U-87 MG, 72 h, read-out: IC50 in cell proliferation assay (table S5 cellpanel data)
[47] = A549, read-out: cell panel IC50, A-549
[48] = A-427, read-out: cell panel IC50, A-427
[49] = BT-549, read-out: cell panel IC50, BT-549

Chain of panel of more than 300 wild-type and mutant kinases (313 kinase panel) (Homo sapiens, UniProt Q00535) (Q00535 whole entry, change not shown): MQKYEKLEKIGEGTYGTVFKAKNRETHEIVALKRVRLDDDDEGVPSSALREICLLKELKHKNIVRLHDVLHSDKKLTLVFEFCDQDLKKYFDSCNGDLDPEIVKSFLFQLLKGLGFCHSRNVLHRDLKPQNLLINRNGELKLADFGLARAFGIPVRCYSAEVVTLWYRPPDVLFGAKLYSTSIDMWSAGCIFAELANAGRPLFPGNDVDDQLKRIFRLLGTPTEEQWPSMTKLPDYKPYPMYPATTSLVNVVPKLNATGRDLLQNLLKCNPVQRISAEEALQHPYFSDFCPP

## C#Cc1cccc(Nc2ncnc3cc(OCCOC)c(OCCOC)cc23)c1 [erlotinib]
[1]; [6]
  IC50: 4.54 µM
[1]; [7]
  IC50: 4.07 µM
[1]; [8]
  IC50: > 31.6 µM
[1]; [9]
  IC50: 4.23 µM
[1]; [10]
  IC50: 20.2 µM
[1]; [11]
  IC50: 6.13 µM
[1]; [12]
  IC50: > 31.6 µM
[1]; [13]
  IC50: 5.16 µM
[1]; [14]
  IC50: 4.97 µM
[1]; [15]
  IC50: 5.05 µM
[1]; [16]
  IC50: 1.37 µM
[1]; [17]
  IC50: 4.29 µM
[1]; [18]
  IC50: 2.74 µM
[1]; [19]
  IC50: > 31.6 µM
[1]; [20]
  IC50: 4.21 µM
[1]; [21]
  IC50: 0.865 µM
[1]; [22]
  IC50: 0.256 µM
[1]; [23]
  IC50: > 31.6 µM
[1]; [24]
  IC50: 3.87 µM
[1]; [25]
  IC50: 1.16 µM
[1]; [26]
  IC50: 6.31 µM
[1]; [27]
  IC50: 8.12 µM
[1]; [28]
  IC50: 7.12 µM
[1]; [29]
  IC50: 22.6 µM
[1]; [30]
  IC50: 7.05 µM
[1]; [31]
  IC50: 3.27 µM
[1]; [32]
  IC50: 2.24 µM
[1]; [33]
  IC50: 13.3 µM
[1]; [34]
  IC50: 6.34 µM
[1]; [35]
  IC50: 9.02 µM
[1]; [36]
  IC50: 20.1 µM
[1]; [37]
  IC50: 5.53 µM
[1]; [38]
  IC50: 5.46 µM
[1]; [39]
  IC50: > 31.6 µM
[1]; [40]
  IC50: > 31.6 µM
[1]; [41]
  IC50: 5.84 µM
[1]; [42]
  IC50: > 31.6 µM
[1]; [43]
  IC50: > 31.6 µM
[1]; [44]
  IC50: 6.41 µM
[1]; [45]
  IC50: > 31.6 µM
[1]; [46]
  IC50: > 31.6 µM
[2]; 1 µM
  %-inhibition of HGK: 50%
[3]; 1 µM
  %-inhibition of PKR: 22%
[4]; 1 µM
  %-inhibition, CDK5/p25: 8%
[5]
  %-inhibition of DDR2: 43%

## CCN(CC)CCNC(=O)c1c(C)[nH]c(/C=C2\C(=O)Nc3ccc(F)cc32)c1C [sunitinib]
[1]; [6]
  IC50: 3.5 µM
[1]; [7]
  IC50: 1.31 µM
[1]; [8]
  IC50: 3.14 µM
[1]; [9]
  IC50: 0.527 µM
[1]; [10]
  IC50: 2.66 µM
[1]; [11]
  IC50: 2.62 µM
[1]; [12]
  IC50: 3.28 µM
[1]; [13]
  IC50: 4.08 µM
[1]; [14]
  IC50: 1.97 µM
[1]; [47]
  IC50: 2.26 µM
[1]; [15]
  IC50: 1.55 µM
[1]; [48]
  IC50: 1.06 µM
[1]; [16]
  IC50: 1.32 µM
[1]; [17]
  IC50: 1.51 µM
[1]; [18]
  IC50: 3.96 µM
[1]; [19]
  IC50: 13.2 µM
[1]; [49]
  IC50: 4.84 µM
[1]; [20]
  IC50: 2.29 µM
[1]; [21]
  IC50: 1.98 µM
[1]; [22]
  IC50: 3.08 µM
[1]; [23]
  IC50: 3.21 µM
[1]; [24]
  IC50: 3.13 µM
[1]; [25]
  IC50: 2 µM
[1]; [26]
  IC50: 2.11 µM
[1]; [27]
  IC50: 2.68 µM
[1]; [28]
  IC50: 3.48 µM
[1]; [29]
  IC50: 1.06 µM
[1]; [30]
  IC50: 2.09 µM
[1]; [31]
  IC50: 3.52 µM
[1]; [32]
  IC50: 0.962 µM
[1]; [33]
  IC50: 3.37 µM
[1]; [34]
  IC50: 0.828 µM
[1]; [35]
  IC50: 3.42 µM
[1]; [36]
  IC50: 2.28 µM
[1]; [37]
  IC50: 3.43 µM
[1]; [38]
  IC50: 8.63 µM
[1]; [39]
  IC50: 3.67 µM
[1]; [40]
  IC50: 5.7 µM
[1]; [41]
  IC50: 1.86 µM
[1]; [42]
  IC50: 3.7 µM
[1]; [43]
  IC50: 5.65 µM
[1]; [44]
  IC50: 2.54 µM
[1]; [46]
  IC50: 5.75 µM
[2]; kinase HGK, compound at 1 μM
  %-inhibition of HGK: 96%

## Cc1nc(Nc2ncc(C(=O)Nc3c(C)cccc3Cl)s2)cc(N2CCN(CCO)CC2)n1 [dasatinib]
[1]; 44 cell line panel, Figure 2D
  Difference between the average IC50 in the cell panel and the most potent IC50: more than 1000 fold
[1]; [6]
  IC50: 2.5 µM
[1]; [7]
  IC50: 0.055 µM
[1]; [8]
  IC50: 1.29 µM
[1]; [9]
  IC50: 3 µM
[1]; [10]
  IC50: 0.055 µM
[1]; [11]
  IC50: 0.359 µM
[1]; [12]
  IC50: 0.099 µM
[1]; [13]
  IC50: 0.021 µM
[1]; [14]
  IC50: 0.681 µM
[1]; [47]
  IC50: 10.2 µM
[1]; [15]
  IC50: 0.518 µM
[1]; [48]
  IC50: 2.18 µM
[1]; [16]
  IC50: 0.048 µM
[1]; [17]
  IC50: 3.55 µM
[1]; [18]
  IC50: 7.07 µM
[1]; [19]
  IC50: 9.8 µM
[1]; [49]
  IC50: 0.143 µM
[1]; [20]
  IC50: 0.204 µM
[1]; [21]
  IC50: 0.009 µM
[1]; [22]
  IC50: 0.153 µM
[1]; [23]
  IC50: 7.19 µM
[1]; [24]
  IC50: 3.4 µM
[1]; [25]
  IC50: 0.446 µM
[1]; [26]
  IC50: 1.68 µM
[1]; [27]
  IC50: 14.2 µM
[1]; [28]
  IC50: 0.079 µM
[1]; [29]
  IC50: 2.39 µM
[1]; [30]
  IC50: 0.00047 µM
[1]; [31]
  IC50: 3.5 µM
[1]; [32]
  IC50: 1.58 µM
[1]; [33]
  IC50: > 10 µM
[1]; [34]
  IC50: 0.862 µM
[1]; [35]
  IC50: 17 µM
[1]; [36]
  IC50: 10.3 µM
[1]; [37]
  IC50: 19 µM
[1]; [38]
  IC50: 0.12 µM
[1]; [39]
  IC50: 0.034 µM
[1]; [40]
  IC50: > 31.6 µM
[1]; [41]
  IC50: 0.636 µM
[1]; [42]
  IC50: > 31.6 µM
[1]; [43]
  IC50: 2.1 µM
[1]; [44]
  IC50: 12.4 µM
[1]; [45]
  IC50: 3.23 µM
[1]; [46]
  IC50: 14.9 µM
[2]; kinase HGK, compound at 1 μM
  %-inhibition of HGK: 78%
[3]; kinase PKR, 1 μM
  %-inhibition of PKR: 3%
[4]; kinase CDK5/p25, 1 μM compound
  %-inhibition, CDK5/p25: 4.63%
